{
  "source": "paper PMC4578723",
  "about": "(Biochemical and biophysical research communications, 2013)",
  "molecular_target": "PTEN (Homo sapiens, UniProt P60484)",
  "sequence (P60484 2-403)": "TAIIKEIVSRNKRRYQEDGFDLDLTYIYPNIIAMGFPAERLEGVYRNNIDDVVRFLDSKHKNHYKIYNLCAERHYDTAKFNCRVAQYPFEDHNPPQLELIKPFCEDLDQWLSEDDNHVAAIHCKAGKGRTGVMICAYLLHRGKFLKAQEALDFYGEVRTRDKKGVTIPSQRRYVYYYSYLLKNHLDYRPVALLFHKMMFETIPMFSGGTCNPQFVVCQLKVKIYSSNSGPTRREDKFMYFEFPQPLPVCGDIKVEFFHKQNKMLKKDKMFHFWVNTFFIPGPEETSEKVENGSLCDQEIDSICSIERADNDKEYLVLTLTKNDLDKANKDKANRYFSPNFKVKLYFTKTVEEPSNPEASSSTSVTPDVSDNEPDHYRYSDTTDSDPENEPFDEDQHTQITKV",
  "experiment": "absorbance […] nm, pNPP hydrolysis",
  "assay_type": "biochemical",
  "conditions": "100 mM pNPP; 25 °C; Tris-HCl pH 8.0",
  "data": [
    {"compound": "O=[N+]([O-])c1ccc(OP(=O)(O)O)cc1", "note": "[pNPP]", "values": [
      {"measurement": "absorbance 405 nm, pNPP hydrolysis", "result": "in vitro activity and affinity for pNPP substrate are similar for both INPP4B and PTEN"}
    ]}
  ]
}
